Measured values from patent US12391648B2, “Pyridyloxy thioester derivative and preparation method therefor, herbicidal composition, and application” (Qingdao Kingagroot Chemical Compound Co., Ltd., priority 2018, dated 2025).

Tests used:
Assay in all cases: Post-emergence test experiment (Table 3, 1000 g/ha)
Type in all cases: in vivo
Conditions in all cases: post-emergence spray, after 3 weeks, fresh weight inhibition
Monochoria vaginalis = tested on: Monochoria vaginalis
Description: (§1) The activity level standard of harmful plants destruction (i. e. growth inhibition rate) is as follows: • Level 5: the growth inhibition rate is greater than 85%; • Level 4: the growth inhibition rate is equal to or greater than 60% and less than 85%; • Level 3: the growth inhibition rate is equal to or greater than 40% and less than 60%; • Level 2: the growth inhibition rate is equal to or greater than 20% and less than 40%; • Level 1: the growth inhibition rate is equal to or greater than 5% and less than 20%; • Level 0: the growth inhibition rate is less than 5%;
(§2) The above described growth inhibition rate is fresh weight inhibition rate.
(§3) Post-emergence test experiment: Monocotyledonous and dicotyledonous weed seeds and main crop seeds (i. e. wheat, corn, rice, soybean, cotton, oilseed, millet and sorghum.) were put into a plastic pot loaded with soil. Then covered with 0.5-2 cm soil, the seeds were allowed to grow in good greenhouse environment. The test plants were treated at 2-3 leaf stage 2 weeks after sowing. The test compounds of the invention were dissolved with acetone respectively, then added with tween-80, and using 1.5 liters per hectare of an emulsible concentrate of methyl oleate as a synergist, and diluted by certain amount of water to certain concentration. The solution was sprayed to the plants with a sprayer. Then the plants were cultured for 3 weeks in the greenhouse, and the experiment result of weed controlling effect after 3 weeks was listed in tables 3-4.

Digitaria sanguinalis = tested on: Digitaria sanguinalis
Description: as §1, §2, §3

Leptochloa chinensis = tested on: Leptochloa chinensis
Description: as §1, §2, §3

Setaria viridis = tested on: Setaria viridis
Description: as §1, §2, §3

Abutilon theophrasti = tested on: Abutilon theophrasti
Description: as §1, §2, §3

Galium spurium = tested on: Galium spurium
Description: as §1, §2, §3

CC(Oc1nc(F)c(Cl)c(N)c1Cl)C(=O)Sc1ccccc1 (stereo not drawn) [Compound 107]
Activity level (growth inhibition rate) Monochoria Vaginalis (Monochoria vaginalis): 5 (Level 5: the growth inhibition rate is greater than 85%)
Activity level (growth inhibition rate) Digitaria sanguinalis (Digitaria sanguinalis): 5 (Level 5: the growth inhibition rate is greater than 85%)
Activity level (growth inhibition rate) Leptochloa chinensis (Leptochloa chinensis): 5 (Level 5: the growth inhibition rate is greater than 85%)
Activity level (growth inhibition rate) Setaria viridis (Setaria viridis): 5 (Level 5: the growth inhibition rate is greater than 85%)
Activity level (growth inhibition rate) Abutilon theophrasti (Abutilon theophrasti): 5 (Level 5: the growth inhibition rate is greater than 85%)
Activity level (growth inhibition rate) Galium spurium (Galium spurium): 5 (Level 5: the growth inhibition rate is greater than 85%)

CC(Oc1nc(F)c(Cl)c(N)c1Cl)C(=O)SCC(=O)N(C)C (stereo not drawn) [Compound 99]
Activity level (growth inhibition rate) Monochoria Vaginalis (Monochoria vaginalis): 5 (Level 5: the growth inhibition rate is greater than 85%)
Activity level (growth inhibition rate) Digitaria sanguinalis (Digitaria sanguinalis): 5 (Level 5: the growth inhibition rate is greater than 85%)
Activity level (growth inhibition rate) Leptochloa chinensis (Leptochloa chinensis): 5 (Level 5: the growth inhibition rate is greater than 85%)
Activity level (growth inhibition rate) Setaria viridis (Setaria viridis): 5 (Level 5: the growth inhibition rate is greater than 85%)
Activity level (growth inhibition rate) Abutilon theophrasti (Abutilon theophrasti): 5 (Level 5: the growth inhibition rate is greater than 85%)
Activity level (growth inhibition rate) Galium spurium (Galium spurium): 5 (Level 5: the growth inhibition rate is greater than 85%)

CC(Oc1nc(F)c(Cl)c(N)c1Cl)C(=O)Sc1ccncc1 (stereo not drawn) [Compound 116]
Activity level (growth inhibition rate) Monochoria Vaginalis (Monochoria vaginalis): 5 (Level 5: the growth inhibition rate is greater than 85%)
Activity level (growth inhibition rate) Digitaria sanguinalis (Digitaria sanguinalis): 5 (Level 5: the growth inhibition rate is greater than 85%)
Activity level (growth inhibition rate) Leptochloa chinensis (Leptochloa chinensis): 5 (Level 5: the growth inhibition rate is greater than 85%)
Activity level (growth inhibition rate) Setaria viridis (Setaria viridis): 5 (Level 5: the growth inhibition rate is greater than 85%)
Activity level (growth inhibition rate) Abutilon theophrasti (Abutilon theophrasti): 5 (Level 5: the growth inhibition rate is greater than 85%)
Activity level (growth inhibition rate) Galium spurium (Galium spurium): 5 (Level 5: the growth inhibition rate is greater than 85%)

COSC(=O)C(C)Oc1nc(F)c(Cl)c(N)c1Cl (stereo not drawn) [Compound 83]
Activity level (growth inhibition rate) Monochoria Vaginalis (Monochoria vaginalis): 5 (Level 5: the growth inhibition rate is greater than 85%)
Activity level (growth inhibition rate) Digitaria sanguinalis (Digitaria sanguinalis): 5 (Level 5: the growth inhibition rate is greater than 85%)
Activity level (growth inhibition rate) Leptochloa chinensis (Leptochloa chinensis): 5 (Level 5: the growth inhibition rate is greater than 85%)
Activity level (growth inhibition rate) Setaria viridis (Setaria viridis): 5 (Level 5: the growth inhibition rate is greater than 85%)
Activity level (growth inhibition rate) Abutilon theophrasti (Abutilon theophrasti): 5 (Level 5: the growth inhibition rate is greater than 85%)
Activity level (growth inhibition rate) Galium spurium (Galium spurium): 5 (Level 5: the growth inhibition rate is greater than 85%)

CCC(C)(C)SC(=O)C(C)Oc1nc(F)c(Cl)c(N)c1Cl (stereo not drawn) [Compound 149]
Activity level (growth inhibition rate) Monochoria Vaginalis (Monochoria vaginalis): 5 (Level 5: the growth inhibition rate is greater than 85%)
Activity level (growth inhibition rate) Digitaria sanguinalis (Digitaria sanguinalis): 5 (Level 5: the growth inhibition rate is greater than 85%)
Activity level (growth inhibition rate) Leptochloa chinensis (Leptochloa chinensis): 5 (Level 5: the growth inhibition rate is greater than 85%)
Activity level (growth inhibition rate) Setaria viridis (Setaria viridis): 5 (Level 5: the growth inhibition rate is greater than 85%)
Activity level (growth inhibition rate) Abutilon theophrasti (Abutilon theophrasti): 5 (Level 5: the growth inhibition rate is greater than 85%)
Activity level (growth inhibition rate) Galium spurium (Galium spurium): 5 (Level 5: the growth inhibition rate is greater than 85%)

CCc1c(OC(C)C(=O)SC)nc(C(F)(F)F)c(CC)c1N (stereo not drawn) [Compound 8]
Activity level (growth inhibition rate) Monochoria Vaginalis (Monochoria vaginalis): 5 (Level 5: the growth inhibition rate is greater than 85%)
Activity level (growth inhibition rate) Digitaria sanguinalis (Digitaria sanguinalis): 5 (Level 5: the growth inhibition rate is greater than 85%)
Activity level (growth inhibition rate) Leptochloa chinensis (Leptochloa chinensis): 5 (Level 5: the growth inhibition rate is greater than 85%)
Activity level (growth inhibition rate) Setaria viridis (Setaria viridis): 5 (Level 5: the growth inhibition rate is greater than 85%)
Activity level (growth inhibition rate) Abutilon theophrasti (Abutilon theophrasti): 5 (Level 5: the growth inhibition rate is greater than 85%)
Activity level (growth inhibition rate) Galium spurium (Galium spurium): 5 (Level 5: the growth inhibition rate is greater than 85%)

CSC(=O)C(C)Oc1ncc(I)c(N)c1I (stereo not drawn) [Compound 13]
Activity level (growth inhibition rate) Monochoria Vaginalis (Monochoria vaginalis): 5 (Level 5: the growth inhibition rate is greater than 85%)
Activity level (growth inhibition rate) Digitaria sanguinalis (Digitaria sanguinalis): 5 (Level 5: the growth inhibition rate is greater than 85%)
Activity level (growth inhibition rate) Leptochloa chinensis (Leptochloa chinensis): 5 (Level 5: the growth inhibition rate is greater than 85%)
Activity level (growth inhibition rate) Setaria viridis (Setaria viridis): 5 (Level 5: the growth inhibition rate is greater than 85%)
Activity level (growth inhibition rate) Abutilon theophrasti (Abutilon theophrasti): 5 (Level 5: the growth inhibition rate is greater than 85%)
Activity level (growth inhibition rate) Galium spurium (Galium spurium): 5 (Level 5: the growth inhibition rate is greater than 85%)

Cc1cn(C)nc1SC(=O)C(C)Oc1nc(F)c(Cl)c(N)c1Cl (stereo not drawn) [Compound 119]
Activity level (growth inhibition rate) Monochoria Vaginalis (Monochoria vaginalis): 5 (Level 5: the growth inhibition rate is greater than 85%)
Activity level (growth inhibition rate) Digitaria sanguinalis (Digitaria sanguinalis): 5 (Level 5: the growth inhibition rate is greater than 85%)
Activity level (growth inhibition rate) Leptochloa chinensis (Leptochloa chinensis): 5 (Level 5: the growth inhibition rate is greater than 85%)
Activity level (growth inhibition rate) Setaria viridis (Setaria viridis): 5 (Level 5: the growth inhibition rate is greater than 85%)
Activity level (growth inhibition rate) Abutilon theophrasti (Abutilon theophrasti): 5 (Level 5: the growth inhibition rate is greater than 85%)
Activity level (growth inhibition rate) Galium spurium (Galium spurium): 5 (Level 5: the growth inhibition rate is greater than 85%)

CC(Oc1nc(F)c(Cl)c(N)c1Cl)C(=O)Sc1ccn(C)n1 (stereo not drawn) [Compound 118]
Activity level (growth inhibition rate) Monochoria Vaginalis (Monochoria vaginalis): 5 (Level 5: the growth inhibition rate is greater than 85%)
Activity level (growth inhibition rate) Digitaria sanguinalis (Digitaria sanguinalis): 5 (Level 5: the growth inhibition rate is greater than 85%)
Activity level (growth inhibition rate) Leptochloa chinensis (Leptochloa chinensis): 5 (Level 5: the growth inhibition rate is greater than 85%)
Activity level (growth inhibition rate) Setaria viridis (Setaria viridis): 5 (Level 5: the growth inhibition rate is greater than 85%)
Activity level (growth inhibition rate) Abutilon theophrasti (Abutilon theophrasti): 5 (Level 5: the growth inhibition rate is greater than 85%)
Activity level (growth inhibition rate) Galium spurium (Galium spurium): 5 (Level 5: the growth inhibition rate is greater than 85%)

CSC(=O)C(C)Oc1nc(F)c(Cl)c(NCc2ccc(C(F)(F)F)o2)c1Cl (stereo not drawn) [Compound 161]
Activity level (growth inhibition rate) Monochoria Vaginalis (Monochoria vaginalis): 5 (Level 5: the growth inhibition rate is greater than 85%)
Activity level (growth inhibition rate) Digitaria sanguinalis (Digitaria sanguinalis): 5 (Level 5: the growth inhibition rate is greater than 85%)
Activity level (growth inhibition rate) Leptochloa chinensis (Leptochloa chinensis): 5 (Level 5: the growth inhibition rate is greater than 85%)
Activity level (growth inhibition rate) Setaria viridis (Setaria viridis): 5 (Level 5: the growth inhibition rate is greater than 85%)
Activity level (growth inhibition rate) Abutilon theophrasti (Abutilon theophrasti): 5 (Level 5: the growth inhibition rate is greater than 85%)
Activity level (growth inhibition rate) Galium spurium (Galium spurium): 5 (Level 5: the growth inhibition rate is greater than 85%)

CCCCC(CC)CSC(=O)C(C)Oc1nc(C)c(C)c(N)c1C (stereo not drawn) [Compound 19]
Activity level (growth inhibition rate) Monochoria Vaginalis (Monochoria vaginalis): 5 (Level 5: the growth inhibition rate is greater than 85%)
Activity level (growth inhibition rate) Digitaria sanguinalis (Digitaria sanguinalis): 5 (Level 5: the growth inhibition rate is greater than 85%)
Activity level (growth inhibition rate) Leptochloa chinensis (Leptochloa chinensis): 5 (Level 5: the growth inhibition rate is greater than 85%)
Activity level (growth inhibition rate) Setaria viridis (Setaria viridis): 5 (Level 5: the growth inhibition rate is greater than 85%)
Activity level (growth inhibition rate) Abutilon theophrasti (Abutilon theophrasti): 5 (Level 5: the growth inhibition rate is greater than 85%)
Activity level (growth inhibition rate) Galium spurium (Galium spurium): 5 (Level 5: the growth inhibition rate is greater than 85%)

CC(Oc1nc(F)c(Cl)c(N)c1Cl)C(=O)SC(N)C(=O)O (stereo not drawn) [Compound 103]
Activity level (growth inhibition rate) Monochoria Vaginalis (Monochoria vaginalis): 5 (Level 5: the growth inhibition rate is greater than 85%)
Activity level (growth inhibition rate) Digitaria sanguinalis (Digitaria sanguinalis): 5 (Level 5: the growth inhibition rate is greater than 85%)
Activity level (growth inhibition rate) Leptochloa chinensis (Leptochloa chinensis): 5 (Level 5: the growth inhibition rate is greater than 85%)
Activity level (growth inhibition rate) Setaria viridis (Setaria viridis): 5 (Level 5: the growth inhibition rate is greater than 85%)
Activity level (growth inhibition rate) Abutilon theophrasti (Abutilon theophrasti): 5 (Level 5: the growth inhibition rate is greater than 85%)
Activity level (growth inhibition rate) Galium spurium (Galium spurium): 5 (Level 5: the growth inhibition rate is greater than 85%)

CC(Oc1nc(F)c(Cl)c(N)c1Cl)C(=O)Sc1cccnc1 (stereo not drawn) [Compound 115]
Activity level (growth inhibition rate) Monochoria Vaginalis (Monochoria vaginalis): 5 (Level 5: the growth inhibition rate is greater than 85%)
Activity level (growth inhibition rate) Digitaria sanguinalis (Digitaria sanguinalis): 5 (Level 5: the growth inhibition rate is greater than 85%)
Activity level (growth inhibition rate) Leptochloa chinensis (Leptochloa chinensis): 5 (Level 5: the growth inhibition rate is greater than 85%)
Activity level (growth inhibition rate) Setaria viridis (Setaria viridis): 5 (Level 5: the growth inhibition rate is greater than 85%)
Activity level (growth inhibition rate) Abutilon theophrasti (Abutilon theophrasti): 5 (Level 5: the growth inhibition rate is greater than 85%)
Activity level (growth inhibition rate) Galium spurium (Galium spurium): 5 (Level 5: the growth inhibition rate is greater than 85%)
